Results reported in the CheMixHub viscosity set.
“And” between values parts separate entries of the source, which are not always exact repeats. Equal entries are not always repeated.

Experiments:
[1] = xn = mol fraction of the nth substance listed

N
Conditions | viscosity [mPa·s]
293.15 K, 101 kPa | 0.144

CCCCC(CC)COP(=O)(O)OCC(CC)CCCC (stereo not given)
101 kPa
Conditions | viscosity [mPa·s]
303.15 K | 20.25
313.15 K | 13.35

C[N+](=O)[O-]
Conditions | viscosity
293.15 K, 101 kPa | 0.648 mPa·s
293.15 K, 101.33 kPa | 0.644 mPa·s and 0.644 mPa·s and 0.646 mPa·s
298 K, 101.3 kPa | 0.627 mPa·s
298.15 K, 101.33 kPa | 0.6215 mPa·s and 0.615 mPa·s
298.45 K, 101 kPa | 0.619 mPa·s
303.15 K, 101.33 kPa | 0.581 mPa·s and 0.581 mPa·s
313.15 K, 101.33 kPa | 0.522 mPa·s and 0.522 mPa·s
318 K, 101.3 kPa | 0.5187 mPa·s
318.15 K, 101 kPa | 0.5208 mPa·s and 0.51 mPa·s and 0.505 mPa·s
323.15 K, 101 kPa | 0.486 mPa·s
323.15 K, 101.33 kPa | 0.4845 mPa·s

CCCCCCn1cc[n+](C)c1.F[P-](F)(F)(F)(F)F
101 kPa
Conditions | viscosity [mPa·s]
303.15 K | 497.1
308.15 K | 364.4
313.15 K | 273
318.15 K | 208.5

Cc1cccc(O)c1
Conditions | viscosity
293.15 K, 101 kPa | 16.9 mPa·s
298 K, 101.3 kPa | 13.19 mPa·s
303 K, 101.3 kPa | 9.877 mPa·s
308 K, 101.3 kPa | 7.599 mPa·s
308.15 K, 101.33 kPa | 7.635 mPa·s
313 K, 101.3 kPa | 6.146 mPa·s
313.15 K, 101 kPa | 5.925 mPa·s and 6.542 mPa·s
313.15 K, 101.3 kPa | 6.252 mPa·s
313.15 K, 101.33 kPa | 6.18 mPa·s
318 K, 101.3 kPa | 4.968 mPa·s
318.15 K, 101 kPa | 5.373 mPa·s and 5.373 mPa·s
323.15 K, 101.3 kPa | 4.111 mPa·s

OCC1CC1
101 kPa
Conditions | viscosity [mPa·s]
293.15 K | 3.985
298.15 K | 3.447
303.15 K | 3.002
308.15 K | 2.629
313.15 K | 2.315
323.15 K | 1.819

CC1CCC(=O)O1 (stereo not given)
101 kPa
Conditions | viscosity [mPa·s]
298.15 K | 1.873
303.15 K | 1.72
308.15 K | 1.586
313.15 K | 1.458
318.15 K | 1.364

CCCC[n+]1cc[nH]c1.O=S(=O)([N-]S(=O)(=O)C(F)(F)F)C(F)(F)F
Conditions | viscosity [mPa·s]
313.2 K, 101.33 kPa | 47.18

CCCCOCCOCCOCCO
101 kPa
Conditions | viscosity [mPa·s]
293.15 K | 9.282
303.15 K | 6.528
313.15 K | 4.979
323.15 K | 3.769

CCC1(C)OC1C#N (stereo not given)
101 kPa
Conditions | viscosity [mPa·s]
293.15 K | 1.485
298.15 K | 1.34
303.15 K | 1.19
313.15 K | 0.98
323.15 K | 0.84

CC(=O)c1ccc(C)cc1
303.15 K
Conditions | viscosity [mPa·s]
100 kPa | 1.581
101 kPa | 1.581

CCCCOC(=O)C(C)O (stereo not given)
Conditions | viscosity [mPa·s]
318.15 K, 101 kPa | 1.935

c1ccc(Cc2ccccc2)cc1
Conditions | viscosity [mPa·s]
302.85 K, 101 kPa | 2.611

CCCCCCCCCCCCN
Conditions | viscosity [mPa·s]
303.15 K, 101 kPa | 2.658

CC1CCC(=O)O1 (stereo not given) + O
viscosity [mPa·s], [1], 101 kPa
Conditions | x1 = 0.0503 | x1 = 0.0995 | x1 = 0.1997 | x1 = 0.2994 | x1 = 0.3997 | x1 = 0.499 | x1 = 0.5994 | x1 = 0.701 | x1 = 0.7995 | x1 = 0.8996
298.15 K | 1.405 | 1.747 | 2.113 | 2.204 | 2.169 | 2.055 | 1.998 | 1.902 | 1.856 | 1.823
303.15 K | 1.243 | 1.533 | 1.852 | 1.939 | 1.921 | 1.831 | 1.786 | 1.719 | 1.689 | 1.671
308.15 K | 1.107 | 1.357 | 1.638 | 1.721 | 1.714 | 1.65 | 1.612 | 1.566 | 1.545 | 1.538
313.15 K | 0.962 | 1.193 | 1.449 | 1.529 | 1.531 | 1.487 | 1.454 | 1.426 | 1.408 | 1.407
318.15 K | 0.8912 | 1.089 | 1.31 | 1.384 | 1.392 | 1.36 | 1.342 | 1.32 | 1.311 | 1.314

N + O=[N+]([O-])[O-].O=[N+]([O-])[O-].[Ca+2]
[1], 293.15 K, 101 kPa
Conditions | viscosity [mPa·s]
x2 = 0.01 | 0.17
x2 = 0.02 | 0.238
x2 = 0.042 | 0.355
x2 = 0.087 | 0.783

CC(=O)c1ccc(C)cc1 + CNC(C)=O
[1], 308.15 K, 101 kPa
Conditions | viscosity [mPa·s]
x1 = 0.0617 | 3.091
x1 = 0.1321 | 2.867
x1 = 0.2004 | 2.666
x1 = 0.2836 | 2.469
x1 = 0.3629 | 2.286
x1 = 0.4632 | 2.08
x1 = 0.5582 | 1.927
x1 = 0.689 | 1.722
x1 = 0.8305 | 1.588

c1ccc(Cc2ccccc2)cc1 + c1ccccc1
[1], 302.85 K, 101 kPa
Conditions | viscosity [mPa·s]
x1 = 0.113 | 0.733
x1 = 0.204 | 0.877
x1 = 0.288 | 1.026
x1 = 0.523 | 1.502
x1 = 0.686 | 1.873
x1 = 0.801 | 2.132
x1 = 0.893 | 2.342

C=Cn1cc[n+](CC(N)=O)c1.O=S(=O)([N-]S(=O)(=O)C(F)(F)F)C(F)(F)F
100 kPa
Conditions | viscosity [mPa·s]
298.15 K | 280.7
303.15 K | 140.3
308.15 K | 71.51
313.15 K | 35.3
318.15 K | 19.85
323.15 K | 12.53

CCCCCCCCCCCCN + C1CCCCC1
[1], 303.15 K, 101 kPa
Conditions | viscosity [mPa·s]
x2 = 0.2093 | 2.31
x2 = 0.3927 | 1.948
x2 = 0.5029 | 1.709
x2 = 0.6032 | 1.492
x2 = 0.8037 | 1.116

C[N+](=O)[O-] + c1ccccc1
[1]
Conditions | viscosity [mPa·s]
293.15 K, 101.33 kPa, x1 = 0.0919 | 0.627
293.15 K, 101.33 kPa, x1 = 0.2238 | 0.606
293.15 K, 101.33 kPa, x1 = 0.2978 | 0.597
293.15 K, 101.33 kPa, x1 = 0.3994 | 0.587
293.15 K, 101.33 kPa, x1 = 0.494 | 0.582
293.15 K, 101.33 kPa, x1 = 0.7053 | 0.585
293.15 K, 101.33 kPa, x1 = 0.8004 | 0.595
293.15 K, 101.33 kPa, x1 = 0.9073 | 0.62
298.15 K, 101 kPa, x1 = 0.1559 | 0.5732
298.15 K, 101 kPa, x1 = 0.294 | 0.5584
298.15 K, 101 kPa, x1 = 0.4165 | 0.5532
298.15 K, 101 kPa, x1 = 0.5262 | 0.5534
298.15 K, 101 kPa, x1 = 0.6247 | 0.5571
298.15 K, 101 kPa, x1 = 0.7142 | 0.5652
298.15 K, 101 kPa, x1 = 0.7953 | 0.577
298.15 K, 101 kPa, x1 = 0.8693 | 0.5909
298.15 K, 101 kPa, x1 = 0.9376 | 0.6098
298.15 K, 101 kPa, x2 = 0.1005 | 0.6116
298.15 K, 101 kPa, x2 = 0.2025 | 0.5886
298.15 K, 101 kPa, x2 = 0.3017 | 0.5772
298.15 K, 101 kPa, x2 = 0.4012 | 0.5724
298.15 K, 101 kPa, x2 = 0.5019 | 0.5707
298.15 K, 101 kPa, x2 = 0.6014 | 0.5751
298.15 K, 101 kPa, x2 = 0.7074 | 0.5817
298.15 K, 101 kPa, x2 = 0.7985 | 0.5905
298.15 K, 101 kPa, x2 = 0.8947 | 0.6035
303.15 K, 101 kPa, x2 = 0.1005 | 0.5803
303.15 K, 101 kPa, x2 = 0.2025 | 0.5594
303.15 K, 101 kPa, x2 = 0.3017 | 0.5479
303.15 K, 101 kPa, x2 = 0.4012 | 0.5438
303.15 K, 101 kPa, x2 = 0.5019 | 0.5405
303.15 K, 101 kPa, x2 = 0.6014 | 0.5447
303.15 K, 101 kPa, x2 = 0.7074 | 0.5475
303.15 K, 101 kPa, x2 = 0.7985 | 0.556
303.15 K, 101 kPa, x2 = 0.8947 | 0.5662
308.15 K, 101 kPa, x2 = 0.1005 | 0.5518
308.15 K, 101 kPa, x2 = 0.2025 | 0.5299
308.15 K, 101 kPa, x2 = 0.3017 | 0.5201
308.15 K, 101 kPa, x2 = 0.4012 | 0.5142
308.15 K, 101 kPa, x2 = 0.5019 | 0.512
308.15 K, 101 kPa, x2 = 0.6014 | 0.5126
308.15 K, 101 kPa, x2 = 0.7074 | 0.5157
308.15 K, 101 kPa, x2 = 0.7985 | 0.5234
308.15 K, 101 kPa, x2 = 0.8947 | 0.5309
313.15 K, 101 kPa, x2 = 0.1005 | 0.5218
313.15 K, 101 kPa, x2 = 0.2025 | 0.5031
313.15 K, 101 kPa, x2 = 0.3017 | 0.4923
313.15 K, 101 kPa, x2 = 0.4012 | 0.4862
313.15 K, 101 kPa, x2 = 0.5019 | 0.4829
313.15 K, 101 kPa, x2 = 0.6014 | 0.4843
313.15 K, 101 kPa, x2 = 0.7074 | 0.4865
313.15 K, 101 kPa, x2 = 0.7985 | 0.4912
313.15 K, 101 kPa, x2 = 0.8947 | 0.4977
